In patent US12703706B2, “Anthelmintic compounds comprising a thienopyridine structure” (Intervet Inc., priority 2020, dated 2026):

Experiments:
[1] = system: Haemonchus contortus; test: In vivo efficacy against Haemonchus contortus in jirds; conditions: in Meriones unguiculatus, 72 h, read-out: reduction of the Haemonchus contortus count
Procedure: In Vivo Assay: Efficacy Against Haemonchus contortus in Jirds
The jirds were orally infected with approximately 1500 third-stage larvae of Haemonchus contortus. Ten days after infection, the jirds in the treatment groups were treated once either orally or subcutaneously with compounds at a dose of 10 mg per kg bodyweight. For treatment, compounds were dissolved in a mixture of 10% Transcutol, 10% Cremophor EL and 80% physiological sodium chloride solution. Three days after treatment, the jirds were necropsied, and the larvae burden in the stomach was determined. The efficacy was defined as the reduction of the mean larvae count in the infected jirds of the treatment group in comparison to the infected jirds in an untreated control group (negative control).

[2] = biological target: human Maxi K channel (BK channel), KCNMA1 (KCa1.1) and beta1 (KCNMB1) subunits (Homo sapiens, UniProt Q12791)
Procedure: In Vitro Assay: Agonistic Activity at the Human Maxi K Channel (BK Channel)
A CHO K1 cell line was stably transfected with the KCNMA1 (KCa1.1, U11058) and betal (KCNMB1) subunits of the human Maxi K channel (Ponte et al, Molecular Pharmacology 2012, 81(4), 567-577).
Cells were seeded in microtiter plates (black 384-well MTP, clear bottom) in a concentration of 20,000 cells/well in 25 μl medium and cultured for 20 to 24 hours at 37° C. and 5% CO2. After incubation, 25 μl of FMP-dye Blue-Tyrode's was added to each well and incubated at room temperature for 30 min. Ten minutes after addition of 12.5 μl compound solution, the plates are transferred to the FLIPR for measurement.
For the membrane potential measurements, plates were placed in the FLIPR Penta (Molecular Devices). The baseline measurement of the fluorescence was stared for 20 sec (Exc. 510-545 nm, Emm. 565-625 nm). Potential channel opening measurement was started by addition of 25 μl KCl-Tyrode (final assay concentration of the KCl-Tyrode: 70 mM KCl, 2 mM CaCl2, 1 mM MgCl2, 0.8 mM NaH2PO4, 5 mM Glucose, 28 mM Hepes, pH 7.4, including the voltage sensitive dye). The complete measurement takes 150 s.
EC50 values were determined in triplicate utilizing compound dilution series. The data were determined at least in two independent tests. The data were proceeded by using the ActivityBase XE Runner software (IDBS) for curve fitting and calculation of the half-maximal effective concentration.

[3] = system: D. immitis microfilaria (L1); test: In vitro assay Dirofilaria immitis L1, motility of microfilaria; assay type: cell-based; conditions: 72 h, read-out: EC50 value, Dirofilaria immitis L1, reduction in motility vs DMSO, incubation 3 days
[4] = system: A. viteae microfilaria (L1); test: In vitro assay Acanthocheilonema viteae L1, motility of microfilaria; conditions: 72 h, read-out: EC50 value, Acanthocheilonema viteae L1, reduction in motility vs DMSO, incubation 3 days
Procedure: Approximately 500 A. viteae microfilaria were added to a microtiter plate containing a nutrient medium and the test compound in DMSO at varying concentrations. After incubation for 3 days, activity was evaluated as reduction in motility as compared to DMSO as negative control.
Compounds were tested in duplicates. Based on the concentration response curves EC50 values were calculated.

Sequence of human Maxi K channel (BK channel), KCNMA1 (KCa1.1) and beta1 (KCNMB1) subunits (Q12791 1-1178 isoform Q12791-5): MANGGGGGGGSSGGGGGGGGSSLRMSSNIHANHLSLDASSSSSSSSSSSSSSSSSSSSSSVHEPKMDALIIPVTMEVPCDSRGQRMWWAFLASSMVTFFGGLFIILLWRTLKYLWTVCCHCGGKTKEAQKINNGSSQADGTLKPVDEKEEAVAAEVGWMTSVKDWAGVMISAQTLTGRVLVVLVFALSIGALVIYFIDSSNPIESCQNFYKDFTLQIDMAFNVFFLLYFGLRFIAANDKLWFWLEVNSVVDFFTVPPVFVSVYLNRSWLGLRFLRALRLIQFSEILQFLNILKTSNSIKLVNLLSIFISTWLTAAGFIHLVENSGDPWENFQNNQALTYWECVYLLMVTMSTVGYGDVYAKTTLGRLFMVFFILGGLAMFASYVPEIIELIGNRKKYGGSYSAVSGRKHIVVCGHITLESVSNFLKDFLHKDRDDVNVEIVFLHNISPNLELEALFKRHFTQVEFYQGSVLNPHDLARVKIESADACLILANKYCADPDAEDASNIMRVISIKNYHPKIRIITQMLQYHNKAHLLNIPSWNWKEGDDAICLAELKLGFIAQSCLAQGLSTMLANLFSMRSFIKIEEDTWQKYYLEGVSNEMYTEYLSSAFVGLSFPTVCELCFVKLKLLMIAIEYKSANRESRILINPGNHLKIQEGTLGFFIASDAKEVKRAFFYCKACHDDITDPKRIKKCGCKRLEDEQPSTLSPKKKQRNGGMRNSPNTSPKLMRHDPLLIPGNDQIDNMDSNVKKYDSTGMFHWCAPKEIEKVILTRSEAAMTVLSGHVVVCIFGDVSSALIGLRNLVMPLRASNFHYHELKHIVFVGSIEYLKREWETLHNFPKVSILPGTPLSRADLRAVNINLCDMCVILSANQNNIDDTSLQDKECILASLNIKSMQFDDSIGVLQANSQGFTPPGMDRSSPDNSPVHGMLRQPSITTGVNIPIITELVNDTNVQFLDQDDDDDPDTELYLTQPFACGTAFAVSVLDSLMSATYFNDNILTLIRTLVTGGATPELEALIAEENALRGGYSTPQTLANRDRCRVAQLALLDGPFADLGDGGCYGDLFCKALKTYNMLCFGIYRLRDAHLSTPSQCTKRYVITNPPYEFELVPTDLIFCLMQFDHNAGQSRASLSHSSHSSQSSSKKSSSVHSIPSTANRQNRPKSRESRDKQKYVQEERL
Sequence of human Maxi K channel (BK channel), KCNMA1 (KCa1.1) and beta1 (KCNMB1) subunits (Q16558 whole entry partner): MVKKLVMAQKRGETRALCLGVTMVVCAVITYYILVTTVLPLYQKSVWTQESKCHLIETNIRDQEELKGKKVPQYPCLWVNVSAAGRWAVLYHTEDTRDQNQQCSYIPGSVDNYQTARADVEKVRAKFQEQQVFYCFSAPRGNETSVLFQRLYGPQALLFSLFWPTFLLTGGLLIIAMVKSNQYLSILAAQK

| Structure (SMILES) | EC50 [2] | also measured |
| --- | --- | --- |
| CN(C)c1c(C(=O)N[C@H]2CCOc3ccccc32)cnc2c(-c3cccc(Cl)c3Cl)csc12 [Compound 10] | > 30 µM | inhibition in vivo at 10 mg/kg [1]: ≥ 80% |
| O=C(Nc1cccc2ccccc12)c1cnc2c(-c3cccc(Cl)c3Cl)csc2c1N1CCOCC1 [Compound 14] | > 30 µM | EC50 [3]: < 10 µM |
| CN1CCN(c2c(C(=O)N[C@H]3CCOc4ccccc43)cnc3c(-c4cccc(Cl)c4Cl)csc23)CC1 [Compound 17] | > 30 µM | EC50 [3]: < 10 µM; EC50 [4]: < 10 µM |
| Cc1sc2c(N(C)C)c(C(=O)N[C@H]3CCOc4ccccc43)cnc2c1-c1cccc(Cl)c1Cl [Compound 36, (S)—N-(chroman-4-yl)-3-(2,3-dichlorophenyl)-7-dimethylamino-2-methylthieno[3,2-b]pyridine-6-carboxamide] | > 30 µM | inhibition in vivo at 10 mg/kg [1]: ≥ 80% |
| Cc1sc2c(N(C)C)c(C(=O)N[C@H]3CCOc4ccccc43)cnc2c1-c1cc(Cl)cc(Cl)c1 [Compound 53] | > 30 µM | inhibition in vivo at 10 mg/kg [1]: ≥ 80% |
| Cc1sc2c(N3CC(F)(F)C3)c(C(=O)N[C@H]3CCOc4ccccc43)cnc2c1-c1cccc(Cl)c1Cl [Compound 56] | > 30 µM | inhibition in vivo at 10 mg/kg [1]: ≥ 80% |
| Cc1sc2c(N3CC(F)(F)C3)c(C(=O)N[C@H]3CCOc4ccccc43)cnc2c1-c1cc(Cl)cc(Cl)c1 [Compound 59] | > 30 µM |  |
| Cc1sc2c(N3CC(F)(F)C3)c(C(=O)N[C@H]3CCc4ccccc43)cnc2c1-c1cc(Cl)cc(Cl)c1 [Compound 60] | > 30 µM |  |
| Cc1sc2c(N3CC(F)C3)c(C(=O)N[C@H]3CCCc4ccccc43)cnc2c1-c1cccc(Cl)c1Cl [Compound 61] | > 30 µM |  |
| Cc1sc2c(N3CC(F)C3)c(C(=O)N[C@H]3CCOc4ccccc43)cnc2c1-c1cccc(Cl)c1Cl [Compound 62] | > 30 µM | inhibition in vivo at 10 mg/kg [1]: ≥ 80% |
| Cc1sc2c(N3CC(F)C3)c(C(=O)N[C@H]3CCc4ccccc43)cnc2c1-c1cccc(Cl)c1Cl [Compound 63] | > 30 µM |  |
| Cc1sc2c(N3CC(F)C3)c(C(=O)N[C@H]3CCCc4ccccc43)cnc2c1-c1cc(Cl)cc(Cl)c1 [Compound 64] | > 30 µM |  |
| Cc1sc2c(N3CC(F)C3)c(C(=O)N[C@H]3CCOc4ccccc43)cnc2c1-c1cc(Cl)cc(Cl)c1 [Compound 65] | > 30 µM | inhibition in vivo at 10 mg/kg [1]: ≥ 80% |
| Cc1sc2c(N3CC(F)C3)c(C(=O)N[C@H]3CCc4ccccc43)cnc2c1-c1cc(Cl)cc(Cl)c1 [Compound 66] | > 30 µM |  |
| Cc1sc2c(N3CCOCC3)c(C(=O)N[C@H]3CCCc4ccccc43)cnc2c1-c1cc(Cl)cc(Cl)c1 [Compound 67] | > 30 µM |  |
| Cc1sc2c(N3CCOCC3)c(C(=O)N[C@H]3CCOc4ccccc43)cnc2c1-c1cc(Cl)cc(Cl)c1 [Compound 68] | > 30 µM | inhibition in vivo at 10 mg/kg [1]: ≥ 80% |
| Cc1sc2c(N3CCOCC3)c(C(=O)N[C@H]3CCc4ccccc43)cnc2c1-c1cc(Cl)cc(Cl)c1 [Compound 69] | > 30 µM |  |
| Cc1sc2c(N3CCOCC3)c(C(=O)Nc3cccc4ccccc34)cnc2c1-c1cc(Cl)cc(Cl)c1 [Compound 70] | > 30 µM |  |
| Cc1sc2c(N3CCOCC3)c(C(=O)N[C@H]3CCCc4ccccc43)cnc2c1-c1cccc(Cl)c1Cl [Compound 71] | > 30 µM |  |
| Cc1sc2c(N3CCOCC3)c(C(=O)N[C@H]3CCOc4ccccc43)cnc2c1-c1cccc(Cl)c1Cl [Compound 72] | > 30 µM | inhibition in vivo at 10 mg/kg [1]: ≥ 80% |
| Cc1sc2c(N3CCOCC3)c(C(=O)N[C@H]3CCc4ccccc43)cnc2c1-c1cccc(Cl)c1Cl [Compound 73] | > 30 µM |  |

| Structure (SMILES) | EC50 [2] | also measured |
| --- | --- | --- |
| Cc1sc2c(N3CCOCC3)c(C(=O)Nc3cccc4ccccc34)cnc2c1-c1cccc(Cl)c1Cl [Compound 74] | > 30 µM |  |
| Cc1cccc(-c2csc3c(N(C)C)c(C(=O)N[C@H]4CCOc5ccccc54)cnc23)c1C [Compound 75] | > 30 µM |  |
| O=C(N[C@H]1CCOc2ccccc21)c1cnc2c(-c3cc(Cl)cc(Cl)c3)csc2c1N1CC(F)(F)C1 [Compound 76] | > 30 µM |  |
| O=C(N[C@H]1CCc2ccccc21)c1cnc2c(-c3cc(Cl)cc(Cl)c3)csc2c1N1CC(F)(F)C1 [Compound 77] | > 30 µM |  |
| CN(C)c1c(C(=O)NC2COc3ccccc32)cnc2c(-c3cccc(Cl)c3Cl)csc12 (centres unmarked) [Compound 78] | > 30 µM |  |
| O=C(NC1COc2ccccc21)c1cnc2c(-c3cccc(Cl)c3Cl)csc2c1N1CCOCC1 (centres unmarked) [Compound 79] | > 30 µM |  |
| O=C(NC1COc2ccccc21)c1cnc2c(-c3cccc(Cl)c3)csc2c1N1CCOCC1 (centres unmarked) [Compound 80] | > 30 µM | EC50 [3]: < 10 µM |
| O=C(NC1COc2ccccc21)c1cnc2c(-c3cc(Cl)cc(Cl)c3)csc2c1N1CCOCC1 (centres unmarked) [Compound 81] | > 30 µM |  |
| COCCNc1c(C(=O)N[C@H]2CCOc3ccccc32)cnc2c(-c3cc(F)cc(F)c3F)csc12 [Compound 82] | > 30 µM |  |
| O=C(N[C@H]1CCOc2ccccc21)c1cnc2c(-c3cc(F)cc(F)c3)csc2c1N1CCC1 [Compound 83] | > 30 µM |  |
| O=C(N[C@H]1CCOc2ccccc21)c1cnc2c(-c3cc(F)cc(F)c3F)csc2c1N1CCC1 [Compound 84] | > 30 µM |  |
| O=C(N[C@H]1CCOc2ccccc21)c1cnc2c(-c3cccc(F)c3F)csc2c1N1CCC1 [Compound 85] | > 30 µM |  |
| O=C(N[C@H]1CCOc2ccccc21)c1cnc2c(-c3cc(F)cc(F)c3)csc2c1NC1CC1 [Compound 86] | > 30 µM |  |
| O=C(N[C@H]1CCOc2ccccc21)c1cnc2c(-c3cccc(F)c3F)csc2c1NC1CC1 [Compound 87] | > 30 µM |  |
| O=C(N[C@H]1CCOc2ccccc21)c1cnc2c(-c3cc(F)cc(F)c3F)csc2c1NC1CC1 [Compound 88] | > 30 µM |  |
| O=C(N[C@H]1CCOc2ccccc21)c1cnc2c(-c3cccc(C(F)(F)F)c3)csc2c1NC1CC1 [Compound 89] | > 30 µM |  |
| O=C(N[C@H]1CCOc2ccccc21)c1cnc2c(-c3cccc(C(F)(F)F)c3)csc2c1N1CCC1 [Compound 90] | > 30 µM |  |
| O=C(N[C@H]1CCOc2ccccc21)c1cnc2c(-c3cccc(F)c3F)csc2c1N1CC(F)C1 [Compound 91] | > 30 µM |  |
| O=C(N[C@H]1CCOc2ccccc21)c1cnc2c(-c3cc(F)cc(F)c3)csc2c1N1CC(F)C1 [Compound 92] | > 30 µM |  |
| O=C(N[C@H]1CCOc2ccccc21)c1cnc2c(-c3cccc(C(F)(F)F)c3)csc2c1N1CC(F)C1 [Compound 93] | > 30 µM |  |
| O=C(N[C@H]1CCOc2ccccc21)c1cnc2c(-c3cc(F)cc(F)c3F)csc2c1NCCO [Compound 94] | > 30 µM |  |

| Structure (SMILES) | EC50 [2] | also measured |
| --- | --- | --- |
| CN(CCO)c1c(C(=O)N[C@H]2CCOc3ccccc32)cnc2c(-c3cc(F)cc(F)c3F)csc12 [Compound 95] | > 30 µM |  |
| CN(C)c1c(C(=O)NC2COc3ccccc32)cnc2c(-c3cc(Cl)cc(Cl)c3)csc12 (centres unmarked) [Compound 96] | > 30 µM |  |
| CN(C)c1c(C(=O)N[C@H]2CCOc3ccccc32)cnc2c(-c3cccc(OC(F)(F)F)c3)csc12 [Compound 97] | > 30 µM |  |
| CN(C)c1cccc(-c2csc3c(N(C)C)c(C(=O)N[C@H]4CCOc5ccccc54)cnc23)c1 [Compound 98] | > 30 µM |  |
| O=C(N[C@H]1CCc2ccccc21)c1cnc2c(-c3cccc(Cl)c3Cl)csc2c1N1CC(F)C1 [Compound 99] | > 30 µM |  |
| O=C(N[C@@H]1COc2ccccc21)c1cnc2c(-c3cc(Cl)cc(Cl)c3)csc2c1N1CCOCC1 [Compound 100] | > 30 µM |  |
| O=C(N[C@H]1CCOc2ccccc21)c1cnc2c(-c3cc(Cl)cc(Cl)c3)csc2c1N1CC(F)C1 [Compound 101] | > 30 µM |  |
| Cc1sc2c(N(C)C)c(C(=O)N[C@H]3CCOc4ccccc43)cnc2c1-c1cc(F)cc(F)c1F [Compound 102] | > 30 µM | inhibition in vivo at 10 mg/kg [1]: ≥ 80% |
| Cc1sc2c(N(C)C)c(C(=O)N[C@H]3CCOc4ccccc43)cnc2c1-c1cc(F)cc(F)c1 [Compound 103] | > 30 µM |  |
| Cc1sc2c(N(C)C)c(C(=O)N[C@H]3CCOc4ccccc43)cnc2c1-c1cccc(C(F)(F)F)c1 [Compound 104] | > 30 µM |  |
| Cc1sc2c(N(C)C)c(C(=O)N[C@H]3CCOc4ccccc43)cnc2c1-c1cccc(OC(F)(F)F)c1 [Compound 105] | > 30 µM |  |
| Cc1sc2c(N3CCOCC3)c(C(=O)N[C@H]3CCOc4ccccc43)cnc2c1-c1cc(F)cc(F)c1F [Compound 106] | > 30 µM |  |
| Cc1sc2c(N3CCOCC3)c(C(=O)N[C@H]3CCOc4ccccc43)cnc2c1-c1cc(F)cc(F)c1 [Compound 107] | > 30 µM |  |
| Cc1sc2c(N3CCOCC3)c(C(=O)N[C@H]3CCOc4ccccc43)cnc2c1-c1cccc(C(F)(F)F)c1 [Compound 108] | > 30 µM |  |
| Cc1sc2c(N3CCOCC3)c(C(=O)N[C@H]3CCOc4ccccc43)cnc2c1-c1cccc(OC(F)(F)F)c1 [Compound 109] | > 30 µM |  |
| Cc1sc2c(N3CCOCC3)c(C(=O)N[C@H]3CCc4ccccc43)cnc2c1-c1cc(F)cc(F)c1F [Compound 110] | > 30 µM |  |
| Cc1sc2c(N3CCOCC3)c(C(=O)N[C@H]3CCc4ccccc43)cnc2c1-c1cc(F)cc(F)c1 [Compound 111] | > 30 µM |  |
| Cc1sc2c(N3CCOCC3)c(C(=O)N[C@H]3CCc4ccccc43)cnc2c1-c1cccc(C(F)(F)F)c1 [Compound 112] | > 30 µM |  |
| Cc1sc2c(N3CCOCC3)c(C(=O)N[C@H]3CCc4ccccc43)cnc2c1-c1cccc(OC(F)(F)F)c1 [Compound 113] | > 30 µM |  |
